Like-named read-outs stand apart in the source and are kept apart here.

The target of test [1] is T1, human somatostatin receptor subtype 2 (Homo sapiens, UniProt P30874).
T1 construct: expressed in transfected cells
As to the kind of experiment: cAMP assay for SST2R (inhibition of cAMP via human SST2 receptor). Type of test: cell-based. As to conditions: Table B, read-out: SST2 potency. An excerpt:
cAMP Assay Protocol for SST2R:
In general terms: Changes in cAMP serve as a functional read-out for many G protein-coupled receptors.

The target of test [2] is human somatostatin receptor subtype 5 (Homo sapiens, UniProt P35346). As to the kind of experiment: cAMP assay for SST5R (inhibition of cAMP via human SST5 receptor). As to conditions: for Fold selectivity for SST5 vs SST2: SST5 over SST2, class symbols.
Sequence of human somatostatin receptor subtype 5 (P35346 whole entry): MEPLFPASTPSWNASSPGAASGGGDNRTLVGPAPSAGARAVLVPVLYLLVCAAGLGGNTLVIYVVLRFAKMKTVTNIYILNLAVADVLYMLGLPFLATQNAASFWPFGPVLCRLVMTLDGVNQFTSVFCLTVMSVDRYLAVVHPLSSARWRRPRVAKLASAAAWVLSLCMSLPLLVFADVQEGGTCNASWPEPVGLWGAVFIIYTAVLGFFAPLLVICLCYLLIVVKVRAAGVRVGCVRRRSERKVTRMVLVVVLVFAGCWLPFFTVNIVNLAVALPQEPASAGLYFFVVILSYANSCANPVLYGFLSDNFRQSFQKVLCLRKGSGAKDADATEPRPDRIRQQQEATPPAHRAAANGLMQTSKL
Procedure: cAMP Assay Protocol for SST5R:
The cells are cultured at 37° C., 5% CO2 and 95% humidity. […] The cells are incubated for 20 minutes at 37° C. […] The cells are treated with 50 μL of lysis buffer (HRTF cAMP kit, Cisbio) for 30 minutes and then the lysate is diluted to 250 μL with assay buffer. The lysate is transferred to 384-well plates and cAMP detection and visualization antibodies are added and incubated for 1-24 hours at room temperature. The time-resolved fluorescent signal is read with a Tecan M1000Pro multiplate reader. The intracellular cAMP concentrations are calculated by regression to a standard curve and are plotted vs. the concentration of the compounds of the invention and the EC50 of the compounds are calculated using standard methods. All data manipulations are in GraphPad Prism v6 or v7.
Setting [3] is: read-out: SST5 potency, inhibition of cAMP via human SST5 receptor, Table B.

T1 sequence (P30874 whole entry): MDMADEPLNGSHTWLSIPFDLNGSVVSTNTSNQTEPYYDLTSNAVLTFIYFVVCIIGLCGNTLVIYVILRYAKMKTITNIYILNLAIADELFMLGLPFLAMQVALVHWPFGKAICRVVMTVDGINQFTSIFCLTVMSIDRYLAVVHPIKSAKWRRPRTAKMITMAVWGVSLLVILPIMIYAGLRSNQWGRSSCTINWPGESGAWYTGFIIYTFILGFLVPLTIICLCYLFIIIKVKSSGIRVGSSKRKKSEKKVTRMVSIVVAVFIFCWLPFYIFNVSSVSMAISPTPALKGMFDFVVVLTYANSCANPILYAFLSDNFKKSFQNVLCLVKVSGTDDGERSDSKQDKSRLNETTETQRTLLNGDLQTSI

Take `CC1(N)CCN(c2c(-c3ccnc(C#N)c3)cncc2-c2nc3cccc(C(F)(F)F)c3[nH]2)C1` (stereo not shown) [Compound 2-148, 4-(3-amino-3-methylpyrrolidin-1-yl)-5-[4-(trifluoromethyl)-1H-1,3-benzodiazol-2-yl]-[3,4′-bipyridine]-2′-carbonitrile]: the EC50 in test [1] was 100 to 1000 nM; in test [2] it was less than 10 nM; in test [2] (setting [3]), less than 10 nM. For the same compound, the “Fold selectivity for SST5 vs SST2” value in test [2] is “+++ (+++=≥500)”.

Turning to `Cc1cccc(-c2cncc(-c3nc4cccc(C)c4[nH]3)c2N2CC[C@@H](N)C2)c1` [Compound 2-199, (3R)-1-[3-(4-methyl-1H-1,3-benzodiazol-2-yl)-5-(3-methylphenyl)pyridin-4-yl]pyrrolidin-3-amine], the EC50 was greater than 1000 nM in test [1], 100 to 1000 nM in test [2] and 100 to 1000 nM in test [2] (setting [3]). The “Fold selectivity for SST5 vs SST2” value in test [2] was “+ (+=10 to 99)”.

For the compound `CC1(N)CCN(c2c(-c3cccc(C#N)c3)cncc2-c2nc3cccc(F)c3[nH]2)C1` (stereo not shown) [Compound 2-13, 3-[4-(3-amino-3-methylpyrrolidin-1-yl)-5-(4-fluoro-1H-1,3-benzodiazol-2-yl)pyridin-3-yl]benzonitrile], the EC50 in test [1] is 100 to 1000 nM; in test [2], less than 10 nM; in test [2] (setting [3]) it was less than 10 nM. Moreover, the “Fold selectivity for SST5 vs SST2” value in test [2] is recorded as “+++ (+++=≥500)”.

Consider `Cc1cccc2nc(-c3cncc(-c4cccc(C#N)c4)c3N3CC[C@H](N)C3)[nH]c12` [Compound 2-80, 3-{4-[(3S)-3-aminopyrrolidin-1-yl]-5-(4-methyl-1H-1,3-benzodiazol-2-yl)pyridin-3-yl}benzonitrile], for which the EC50 in test [1] is 100 to 1000 nM; in test [2] it was less than 10 nM; in test [2] (setting [3]), less than 10 nM. Also, the “Fold selectivity for SST5 vs SST2” value in test [2] is on record as “+++ (+++=≥500)”.

Take `N#Cc1cc(F)cc(-c2cncc(-c3nc4c(F)cccc4[nH]3)c2N2CC[C@H](N)C2)c1` [Compound 2-8, 3-{4-[(3S)-3-aminopyrrolidin-1-yl]-5-(4-fluoro-1H-1,3-benzodiazol-2-yl)pyridin-3-yl}-5-fluorobenzonitrile]: in test [1], the EC50 is greater than 1000 nM.

As to `N[C@H]1CCN(c2c(-c3cc(F)cc(Cl)c3)cncc2-c2nc3c(F)cccc3[nH]2)C1` [Compound 2-3, (3 S)-1-[3-(3-chloro-5-fluorophenyl)-5-(4-fluoro-1H-1,3-benzodiazol-2-yl)pyridin-4-yl]pyrrolidin-3-amine], in test [1], the EC50 lay within 100 to 1000 nM.

Regarding `Cc1cc(F)cc(-c2cncc(-c3nc4c(F)cccc4[nH]3)c2N2CC(CN)C2)c1` [Compound 1-2, 1-{1-[3-(4-fluoro-1H-1,3-benzodiazol-2-yl)-5-(3-fluoro-5-methylphenyl)pyridin-4-yl]azetidin-3-yl}methanamine], the EC50 in test [1] is greater than 1000 nM.

In the case of `Cc1cc(F)cc(-c2cncc(-c3nc4c(F)cccc4[nH]3)c2N2CC[C@H](N)C2)c1` [Compound 2-193, (3S)-1-[3-(4-fluoro-1H-1,3-benzodiazol-2-yl)-5-(3-fluoro-5-methylphenyl)pyridin-4-yl]pyrrolidin-3-amine], in test [1], the EC50 lay in the range of 100 to 1000 nM.

For `Cc1cc(F)cc(-c2cncc(-c3nc4c(F)cc(F)cc4[nH]3)c2N2CC(C(C)N)C2)c1` (stereo not shown) [Compound 1-42, 1-{1-[3-(4,6-difluoro-1H-1,3-benzodiazol-2-yl)-5-(3-fluoro-5-methylphenyl)pyridin-4-yl]azetidin-3-yl}ethan-1-amine], the EC50 in test [1] lay in the range of 100 to 1000 nM.

Regarding `Cc1cc(F)cc(-c2cncc(-c3nc4c(F)c(F)ccc4[nH]3)c2N2CC(CN)C2)c1` [Compound 1-6, 1-{1-[3-(4,5-difluoro-1H-1,3-benzodiazol-2-yl)-5-(3-fluoro-5-methylphenyl)pyridin-4-yl]azetidin-3-yl}methanamine], the EC50 in test [1] is greater than 1000 nM.

Turning to `N#Cc1cc(-c2cncc(-c3nc4c(Cl)cccc4[nH]3)c2N2CC[C@H](N)C2)ccc1F` [Compound 2-51, 5-{4-[(3S)-3-aminopyrrolidin-1-yl]-5-(4-chloro-1H-1,3-benzodiazol-2-yl)pyridin-3-yl}-2-fluorobenzonitrile], the EC50 in test [1] was 100 to 1000 nM.

Regarding `Cc1cc(F)cc(-c2cncc(-c3nc4c(F)cc(F)cc4[nH]3)c2N2CC[C@H](N)C2)c1` (stereo in doubt) [Compound 2-194, 1-[3-(4,6-difluoro-1H-1,3-benzodiazol-2-yl)-5-(3-fluoro-5-methylphenyl)pyridin-4-yl]pyrrolidin-3-amine], in test [1], the EC50 was in the range of 100 to 1000 nM.

On to `Cc1cc(F)cc(-c2cncc(-c3nc4cc(F)cc(F)c4[nH]3)c2N2CCC(N)C2)c1` (stereo not shown) [Compound 2-1, 1-[3-(4,6-difluoro-1H-1,3-benzodiazol-2-yl)-5-(3-fluoro-5-methylphenyl)pyridin-4-yl]pyrrolidin-3-amine], for which the EC50 in test [1] lay in the range of 100 to 1000 nM.

On to `CC(N)C1CN(c2c(-c3cc(F)cc(C#N)c3)cncc2-c2nc3c(F)cc(F)cc3[nH]2)C1` (stereo not shown) [Compound 1-64, 3-{4-[3-(1-aminoethyl)azetidin-1-yl]-5-(4,6-difluoro-1H-1,3-benzodiazol-2-yl)pyridin-3-yl}-5-fluorobenzonitrile], for which the EC50 in test [1] is greater than 1000 nM.

In test [2], `Cc1ccc(-c2cncc(-c3nc4cc(F)cc(F)c4[nH]3)c2N2CC(CN)C2)cc1` [Compound 1-31, 1-{1-[3-(4,6-difluoro-1H-1,3-benzodiazol-2-yl)-5-(4-methylphenyl)pyridin-4-yl]azetidin-3-yl}methanamine] registered an EC50 of 10 to 100 nM.

Compound `Cc1cc(F)cc(-c2cncc(-c3ncc[nH]3)c2N2CC(CN)C2)c1` [Compound 1-56, 1-{1-[3-(3-fluoro-5-methylphenyl)-5-(1H-imidazol-2-yl)pyridin-4-yl]azetidin-3-yl}methanamine] gave an EC50 in test [2] greater than 1000 nM.

For the compound `NCC1CN(c2c(-c3ccccc3)cncc2-c2nc3c(F)cc(F)cc3[nH]2)C1` [Compound 1-27, 1-{1-[3-(4,6-difluoro-1H-1,3-benzodiazol-2-yl)-5-phenylpyridin-4-yl]azetidin-3-yl}methanamine], the EC50 in test [2] was 10 to 100 nM.

For the compound `Cc1ccnc2nc(-c3cncc(-c4ccc(F)c(C#N)c4)c3N3CCC(C)(N)C3)[nH]c12` (stereo not shown) [Compound 2-119, 5-[4-(3-amino-3-methylpyrrolidin-1-yl)-5-{7-methyl-1H-imidazo[4,5-b]pyridin-2-yl}pyridin-3-yl]-2-fluorobenzonitrile], the EC50 in test [2] and in test [2] (setting [3]) was less than 10 nM in each case. Moreover, the “Fold selectivity for SST5 vs SST2” value in test [2] was “++ (++=100 to 499)”.

Regarding `Cc1ccnc2[nH]c(-c3cncc(-c4cc(F)cc(C(N)=O)c4)c3N3CC[C@](C)(N)C3)nc12` [Compound 2-169, 3-{4-[(3S)-3-amino-3-methylpyrrolidin-1-yl]-5-{7-methyl-1H-imidazo[4,5-b]pyridin-2-yl}pyridin-3-yl}-5-fluorobenzamide], the EC50 in test [2] is less than 10 nM.

The compound `N#Cc1cccc(-c2cncc(-c3nc4c(F)cccc4[nH]3)c2N2C[C@@H](N)[C@H](O)C2)c1` (racemic) [Compound 2-81, 3-{4-[trans-3-amino-4-hydroxypyrrolidin-1-yl]-5-(4-fluoro-1H-1,3-benzodiazol-2-yl)pyridin-3-yl}benzonitrile] gave an EC50 in test [2] of 10 to 100 nM.

In turn, `N#Cc1cc(F)cc(-c2cncc(-c3nc4cc(F)cc(F)c4[nH]3)c2N2CC(CN)C2)c1` [Compound 1-34, 3-{4-[3-(aminomethyl)azetidin-1-yl]-5-(4,6-difluoro-1H-1,3-benzodiazol-2-yl)pyridin-3-yl}-5-fluorobenzonitrile] came in with an EC50 in test [2] of less than 10 nM.

The compound `NC(=O)c1cccc(-c2cncc(-c3nc4cccc(F)c4[nH]3)c2N2CCC(N)(C(F)(F)F)C2)c1` (stereo not shown) [Compound 2-64, 3-{4-[3-amino-3-(trifluoromethyl)pyrrolidin-1-yl]-5-(4-fluoro-1H-1,3-benzodiazol-2-yl)pyridin-3-yl}benzamide] gave an EC50 in test [2] greater than 1000 nM.

Compound `CNC(=O)c1cccc2nc(-c3cncc(-c4cccc(C#N)c4)c3N3CC[C@H](N)C3)[nH]c12` [Compound 2-90, 2-{4-[(3S)-3-aminopyrrolidin-1-yl]-5-(3-cyanophenyl)pyridin-3-yl}-N-methyl-1H-1,3-benzodiazole-4-carboxamide] came in with an EC50 in test [2] greater than 1000 nM.

As for `Cc1cc(-c2cncc(-c3nc4cccc(F)c4[nH]3)c2N2CC[C@H](N)C2)cc(N)n1` [Compound 2-130, 4-[(3S)-3-aminopyrrolidin-1-yl]-5-(4-fluoro-1H-1,3-benzodiazol-2-yl)-6′-methyl-[3,4′-bipyridin]-2′-amine], the EC50 in test [2] fell in the range of 100 to 1000 nM.

On to `Cn1c(-c2cncc(-c3ccnc(C#N)c3)c2N2CC[C@](C)(N)C2)nc2c(Cl)cccc21` [Compound 2-151, 4-[(3S)-3-amino-3-methylpyrrolidin-1-yl]-5-(4-chloro-1-methyl-1H-1,3-benzodiazol-2-yl)-[3,4′-bipyridine]-2′-carbonitrile], for which the EC50 in test [2] is less than 10 nM.

Compound `N#Cc1cc(-c2cncc(-c3nc4cccc(F)c4[nH]3)c2N2CC[C@H](N)C2)ccc1O` [Compound 2-36, 5-{4-[(3S)-3-aminopyrrolidin-1-yl]-5-(4-fluoro-1H-1,3-benzodiazol-2-yl)pyridin-3-yl}-2-hydroxybenzonitrile] returned an EC50 in test [2] of 100 to 1000 nM.

As to `Cc1cc(F)cc(-c2cncc(-c3nc4cc(F)ccc4[nH]3)c2N2CC(CN)C2)c1` [Compound 1-1, 1-{1-[3-(5-fluoro-1H-1,3-benzodiazol-2-yl)-5-(3-fluoro-5-methylphenyl)pyridin-4-yl]azetidin-3-yl}methanamine], in test [1], the EC50 was greater than 1000 nM.

In test [2], `Cc1cncc(-c2cncc(-c3nc4cc(F)cc(F)c4[nH]3)c2N2CC(CN)C2)c1` [Compound 1-32, 1-{1-[5-(4,6-difluoro-1H-1,3-benzodiazol-2-yl)-5′-methyl-[3,3′-bipyridin]-4-yl]azetidin-3-yl}methanamine] displayed an EC50 of 100 to 1000 nM.

In test [2], `Cn1c(-c2cncc(-c3ccnc(C#N)c3)c2N2CC[C@](C)(N)C2)nc2c(F)cccc21` [Compound 2-150, 4-[(3S)-3-amino-3-methylpyrrolidin-1-yl]-5-(4-fluoro-1-methyl-1H-1,3-benzodiazol-2-yl)-[3,4′-bipyridine]-2′-carbonitrile] displayed an EC50 of less than 10 nM.

These data come from patent US11608335B2, “Somatostatin modulators and uses thereof” (CRINETICS PHARMACEUTICALS, INC., priority 2018, dated 2023).
